Results as given in ChEMBL document CHEMBL1833866, “Synthesis and evaluation of 1-(4-[¹⁸F]fluoroethyl)-7-(4'-methyl)curcumin with improved brain permeability for β-amyloid plaque imaging” (Bioorg Med Chem Lett, 2011).
The source made the active and inactive calls. The rule behind the calls is not given here.

Legend:
Mus musculus [1] = experiment: In vivo binding affinity to amyloid beta (1 to 42) in double transgenic APP/PS-1 mouse brain at 100 uM after 30 mins by microscopy; type: functional, organism-based
[2] = Binding affinity to amyloid beta (1 to 42) after 3 hrs using [125I]IMSB by gamma counter method
Mus musculus [3] = experiment: In vivo binding affinity to amyloid beta (1 to 42) in wild type mouse brain at 100 uM after 30 mins by microscopy; type: functional, organism-based
[4] = Binding affinity to amyloid beta (1 to 40) after 3 hrs using [125I]IMSB by gamma counter method
[5] = Ratio of drug uptake in hippocampus to cerebellum in transgenic Tg2576 mouse brain; conditions: in vivo
Blood [6] = experiment: Biodistribution in ICR mouse blood at 1.11 MBq, iv after 30 mins; type: ADME, organism-based; conditions: in vivo, 0.5 h
Blood [7] = experiment: Biodistribution in ICR mouse blood at 1.11 MBq, iv after 60 mins; type: ADME, organism-based; conditions: in vivo, 1 h
Muscle tissue [8] = experiment: Biodistribution in ICR mouse Muscle at 1.11 MBq, iv after 30 mins; type: ADME, organism-based; conditions: in vivo, 0.5 h
Femur [9] = experiment: Biodistribution in ICR mouse Femur at 1.11 MBq, iv after 120 mins; type: ADME, organism-based; conditions: in vivo, 2 h
Lung [10] = experiment: Biodistribution in ICR mouse Lung at 1.11 MBq, iv after 30 mins; type: ADME, organism-based; conditions: in vivo, 0.5 h
Muscle tissue [11] = experiment: Biodistribution in ICR mouse Muscle at 1.11 MBq, iv after 60 mins; type: ADME, organism-based; conditions: in vivo, 1 h
Heart [12] = experiment: Biodistribution in ICR mouse heart at 1.11 MBq, iv after 120 mins; type: ADME, organism-based; conditions: in vivo, 2 h
Lung [13] = experiment: Biodistribution in ICR mouse Lung at 1.11 MBq, iv after 2 mins; type: ADME, organism-based; conditions: in vivo
[14] = Octanol-water partition coefficient, log P of the compound by TLC analysis; type: physicochemical
Heart [15] = experiment: Biodistribution in ICR mouse heart at 1.11 MBq, iv after 60 mins; type: ADME, organism-based; conditions: in vivo, 1 h
Blood [16] = experiment: Biodistribution in ICR mouse blood at 1.11 MBq, iv after 2 mins; type: ADME, organism-based; conditions: in vivo
Spleen [17] = experiment: Biodistribution in ICR mouse Spleen at 1.11 MBq, iv after 30 mins; type: ADME, organism-based; conditions: in vivo, 0.5 h
Femur [18] = experiment: Biodistribution in ICR mouse Femur at 1.11 MBq, iv after 60 mins; type: ADME, organism-based; conditions: in vivo, 1 h
Liver [19] = experiment: Biodistribution in ICR mouse Liver at 1.11 MBq, iv after 60 mins; type: ADME, organism-based; conditions: in vivo, 1 h
Brain [20] = experiment: Biodistribution in ICR mouse Brain at 1.11 MBq, iv after 30 mins; type: ADME, organism-based; conditions: in vivo, 0.5 h
Liver [21] = experiment: Biodistribution in ICR mouse Liver at 1.11 MBq, iv after 30 mins; type: ADME, organism-based; conditions: in vivo, 0.5 h
Brain [22] = experiment: Biodistribution in ICR mouse Brain at 1.11 MBq, iv after 120 mins; type: ADME, organism-based; conditions: in vivo, 2 h
Liver [23] = experiment: Biodistribution in ICR mouse Liver at 1.11 MBq, iv after 2 mins; type: ADME, organism-based; conditions: in vivo
Brain [24] = experiment: Biodistribution in ICR mouse Brain at 1.11 MBq, iv after 2 mins; type: ADME, organism-based; conditions: in vivo
Spleen [25] = experiment: Biodistribution in ICR mouse Spleen at 1.11 MBq, iv after 2 mins; type: ADME, organism-based; conditions: in vivo
Spleen [26] = experiment: Biodistribution in ICR mouse Spleen at 1.11 MBq, iv after 60 mins; type: ADME, organism-based; conditions: in vivo, 1 h
Liver [27] = experiment: Biodistribution in ICR mouse Liver at 1.11 MBq, iv after 120 mins; type: ADME, organism-based; conditions: in vivo, 2 h
Heart [28] = experiment: Biodistribution in ICR mouse heart at 1.11 MBq, iv after 30 mins; type: ADME, organism-based; conditions: in vivo, 0.5 h
Heart [29] = experiment: Biodistribution in ICR mouse heart at 1.11 MBq, iv after 2 mins; type: ADME, organism-based; conditions: in vivo
Blood [30] = experiment: Biodistribution in ICR mouse blood at 1.11 MBq, iv after 120 mins; type: ADME, organism-based; conditions: in vivo, 2 h
Lung [31] = experiment: Biodistribution in ICR mouse Lung at 1.11 MBq, iv after 60 mins; type: ADME, organism-based; conditions: in vivo, 1 h
Kidney [32] = experiment: Biodistribution in ICR mouse Kidney at 1.11 MBq, iv after 60 mins; type: ADME, organism-based; conditions: in vivo, 1 h
Femur [33] = experiment: Biodistribution in ICR mouse Femur at 1.11 MBq, iv after 30 mins; type: ADME, organism-based; conditions: in vivo, 0.5 h
Femur [34] = experiment: Biodistribution in ICR mouse Femur at 1.11 MBq, iv after 2 mins; type: ADME, organism-based; conditions: in vivo
Spleen [35] = experiment: Biodistribution in ICR mouse Spleen at 1.11 MBq, iv after 120 mins; type: ADME, organism-based; conditions: in vivo, 2 h
Kidney [36] = experiment: Biodistribution in ICR mouse Kidney at 1.11 MBq, iv after 30 mins; type: ADME, organism-based; conditions: in vivo, 0.5 h
Lung [37] = experiment: Biodistribution in ICR mouse Lung at 1.11 MBq, iv after 120 mins; type: ADME, organism-based; conditions: in vivo, 2 h
Kidney [38] = experiment: Biodistribution in ICR mouse Kidney at 1.11 MBq, iv after 120 mins; type: ADME, organism-based; conditions: in vivo, 2 h
Kidney [39] = experiment: Biodistribution in ICR mouse Kidney at 1.11 MBq, iv after 2 mins; type: ADME, organism-based; conditions: in vivo
Muscle tissue [40] = experiment: Biodistribution in ICR mouse Muscle at 1.11 MBq, iv after 120 mins; type: ADME, organism-based; conditions: in vivo, 2 h
Brain [41] = experiment: Biodistribution in ICR mouse Brain at 1.11 MBq, iv after 60 mins; type: ADME, organism-based; conditions: in vivo, 1 h
Muscle tissue [42] = experiment: Biodistribution in ICR mouse Muscle at 1.11 MBq, iv after 2 mins; type: ADME, organism-based; conditions: in vivo

Structure (SMILES): COc1ccc(/C=C/C(=O)/C=C(O)/C=C/c2ccc(OCCF)c(OC)c2)cc1OC
- Activity (Mus musculus [1]): Active
- Ki [2]: 2.12 nM
- Activity (Mus musculus [3]): inactive

Structure (SMILES): COc1ccc(/C=C/c2ccc(/C=C/c3ccc(OC)c(C(=O)O)c3)c([125I])c2)cc1C(=O)O
- Kd [2]: 1.19 nM

Structure (SMILES): COc1cc(/C=C/C(=O)CC(=O)/C=C/c2ccc(O)c(OC)c2)ccc1O [CURCUMIN]
- Ki [2]: 3.57 nM

Structure (SMILES): COc1ccc(/C=C/C(=O)/C=C(O)/C=C/c2ccc(OCCCF)c(OC)c2)cc1OC
- Ki [2]: 2.69 nM

Structure (SMILES): COc1cc(/C=C/C(=O)/C=C(O)/C=C/c2ccc(OCCOCCOCCF)c(OC)c2)ccc1O
- Ki [2]: 4.44 nM

Structure (SMILES): COc1cc(/C=C/C(O)=C/C(=O)/C=C/c2ccc(OCCC[18F])c(OC)c2)ccc1O
- Ki [4]: 0.07 nM
- Ratio [5]: 3

Structure (SMILES): [11CH3]Nc1ccc(-c2nc3ccc(O)cc3s2)cn1
- Ki [2]: 1.7 nM

Structure (SMILES): COc1ccc(/C=C/C(=O)/C=C(O)/C=C/c2ccc(OCC[18F])c(OC)c2)cc1OC
- Drug uptake (Blood [6]): 1.26 % ID/g
- Drug uptake (Blood [7]): 0.89 % ID/g
- Drug uptake (Muscle tissue [8]): 0.76 % ID/g
- Drug uptake (Femur [9]): 1.62 % ID/g
- Drug uptake (Lung [10]): 3.94 % ID/g
- Drug uptake (Muscle tissue [11]): 0.47 % ID/g
- Drug uptake (Heart [12]): 1.54 % ID/g
- Drug uptake (Lung [13]): 23.78 % ID/g
- logP [14]: 2.4
- Drug uptake (Heart [15]): 1.3 % ID/g
- Drug uptake (Blood [16]): 9.76 % ID/g
- Drug uptake (Spleen [17]): 20.8 % ID/g
- Drug uptake (Femur [18]): 1 % ID/g
- Drug uptake (Liver [19]): 26.83 % ID/g
- Drug uptake (Brain [20]): 0.45 % ID/g
- Drug uptake (Liver [21]): 43.02 % ID/g
- Drug uptake (Brain [22]): 0.29 % ID/g
- Drug uptake (Liver [23]): 38.83 % ID/g
- Drug uptake (Brain [24]): 1.44 % ID/g
- Drug uptake (Spleen [25]): 16.41 % ID/g
- Drug uptake (Spleen [26]): 10.59 % ID/g
- Drug uptake (Liver [27]): 12.51 % ID/g
- Drug uptake (Heart [28]): 1.68 % ID/g
- Drug uptake (Heart [29]): 7.18 % ID/g
- Drug uptake (Blood [30]): 0.67 % ID/g
- Drug uptake (Lung [31]): 2.27 % ID/g
- Drug uptake (Kidney [32]): 2.25 % ID/g
- Drug uptake (Femur [33]): 1.08 % ID/g
- Drug uptake (Femur [34]): 1.86 % ID/g
- Drug uptake (Spleen [35]): 8.08 % ID/g
- Drug uptake (Kidney [36]): 4.01 % ID/g
- Drug uptake (Lung [37]): 2.19 % ID/g
- Drug uptake (Kidney [38]): 1.42 % ID/g
- Drug uptake (Kidney [39]): 10.95 % ID/g
- Drug uptake (Muscle tissue [40]): 0.37 % ID/g
- Drug uptake (Brain [41]): 0.43 % ID/g
- Drug uptake (Muscle tissue [42]): 0.89 % ID/g

Structure (SMILES): COc1ccc(/C=C/C(=O)/C=C(O)/C=C/c2ccc(OCCOCCF)c(OC)c2)cc1OC
- Ki [2]: 3.01 nM

Structure (SMILES): COc1cc(/C=C/C(=O)/C=C(O)/C=C/c2ccc(OCCOCCF)c(OC)c2)ccc1O
- Ki [2]: 4.65 nM

Structure (SMILES): O=C(O)c1cc(/N=N/c2ccc(-c3ccc(/N=N/c4ccc(O)c(C(=O)O)c4)cc3)cc2)ccc1O [CHRYSAMINE G]
- Ki [2]: 0.43 nM
